Test results reported in ChEMBL document CHEMBL1201862, “PubChem BioAssay data set” (2004).
Where “and” joins values, the source holds several entries; their conditions need not be identical. Equal entries are not always repeated. One block for each compound: values may come before it. Calls of active or inactive are those of the source.

What was measured:
HEK293 [1] = assay: cells; assay type: functional, cell-based; details: Homo sapiens
HEK293 [2] = assay: cells; assay type: functional, cell-based; details: Homo sapiens; remark: listed apart in the source
HEK293 [3] = assay: cells; assay type: functional, cell-based; details: Homo sapiens; remark: listed apart in the source
[4] = molecular target: Nucleotide-binding oligomerization domain-containing protein 2 (Homo sapiens, UniProt Q9HC29); assay: NOD2 signaling inhibitors, cell-based, luminescence, uHTS, HEK293 (AID 1566); assay type: functional
Chain of Nucleotide-binding oligomerization domain-containing protein 2 (Q9HC29 whole entry, the tested form may be a part): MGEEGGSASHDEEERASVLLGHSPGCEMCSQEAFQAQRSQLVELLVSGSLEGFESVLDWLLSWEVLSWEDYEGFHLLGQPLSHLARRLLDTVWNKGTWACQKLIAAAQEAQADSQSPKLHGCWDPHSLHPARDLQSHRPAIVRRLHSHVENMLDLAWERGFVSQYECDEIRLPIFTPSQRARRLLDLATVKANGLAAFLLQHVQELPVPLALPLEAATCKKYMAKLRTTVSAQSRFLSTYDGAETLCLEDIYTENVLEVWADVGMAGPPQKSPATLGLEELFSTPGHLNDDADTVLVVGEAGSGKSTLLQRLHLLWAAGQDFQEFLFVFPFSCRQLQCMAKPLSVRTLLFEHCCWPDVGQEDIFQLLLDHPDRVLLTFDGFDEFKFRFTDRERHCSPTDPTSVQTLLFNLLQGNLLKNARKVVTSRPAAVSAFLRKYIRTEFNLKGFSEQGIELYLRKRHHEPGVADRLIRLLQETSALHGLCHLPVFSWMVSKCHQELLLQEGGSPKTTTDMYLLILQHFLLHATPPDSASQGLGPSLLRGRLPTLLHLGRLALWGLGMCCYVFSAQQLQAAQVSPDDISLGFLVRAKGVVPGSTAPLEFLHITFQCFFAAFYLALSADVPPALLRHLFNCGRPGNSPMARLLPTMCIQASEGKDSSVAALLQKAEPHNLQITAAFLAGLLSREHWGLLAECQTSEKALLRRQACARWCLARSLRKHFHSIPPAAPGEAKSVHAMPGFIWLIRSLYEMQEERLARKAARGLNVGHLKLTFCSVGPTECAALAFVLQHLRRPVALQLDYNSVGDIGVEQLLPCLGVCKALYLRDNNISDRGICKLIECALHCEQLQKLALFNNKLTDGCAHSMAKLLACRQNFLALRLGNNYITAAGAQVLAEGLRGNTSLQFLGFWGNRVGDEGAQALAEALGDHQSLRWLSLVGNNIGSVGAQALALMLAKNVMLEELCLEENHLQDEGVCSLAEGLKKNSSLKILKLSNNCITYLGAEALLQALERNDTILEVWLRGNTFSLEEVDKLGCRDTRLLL

[5] = molecular target: T1, Nucleotide-binding oligomerization domain-containing protein 1 (Homo sapiens, UniProt Q9Y239); assay: NOD1 signaling inhibitors, SAR follow-up, revised (AID 2333); assay type: functional
T1 sequence (Q9Y239 whole entry): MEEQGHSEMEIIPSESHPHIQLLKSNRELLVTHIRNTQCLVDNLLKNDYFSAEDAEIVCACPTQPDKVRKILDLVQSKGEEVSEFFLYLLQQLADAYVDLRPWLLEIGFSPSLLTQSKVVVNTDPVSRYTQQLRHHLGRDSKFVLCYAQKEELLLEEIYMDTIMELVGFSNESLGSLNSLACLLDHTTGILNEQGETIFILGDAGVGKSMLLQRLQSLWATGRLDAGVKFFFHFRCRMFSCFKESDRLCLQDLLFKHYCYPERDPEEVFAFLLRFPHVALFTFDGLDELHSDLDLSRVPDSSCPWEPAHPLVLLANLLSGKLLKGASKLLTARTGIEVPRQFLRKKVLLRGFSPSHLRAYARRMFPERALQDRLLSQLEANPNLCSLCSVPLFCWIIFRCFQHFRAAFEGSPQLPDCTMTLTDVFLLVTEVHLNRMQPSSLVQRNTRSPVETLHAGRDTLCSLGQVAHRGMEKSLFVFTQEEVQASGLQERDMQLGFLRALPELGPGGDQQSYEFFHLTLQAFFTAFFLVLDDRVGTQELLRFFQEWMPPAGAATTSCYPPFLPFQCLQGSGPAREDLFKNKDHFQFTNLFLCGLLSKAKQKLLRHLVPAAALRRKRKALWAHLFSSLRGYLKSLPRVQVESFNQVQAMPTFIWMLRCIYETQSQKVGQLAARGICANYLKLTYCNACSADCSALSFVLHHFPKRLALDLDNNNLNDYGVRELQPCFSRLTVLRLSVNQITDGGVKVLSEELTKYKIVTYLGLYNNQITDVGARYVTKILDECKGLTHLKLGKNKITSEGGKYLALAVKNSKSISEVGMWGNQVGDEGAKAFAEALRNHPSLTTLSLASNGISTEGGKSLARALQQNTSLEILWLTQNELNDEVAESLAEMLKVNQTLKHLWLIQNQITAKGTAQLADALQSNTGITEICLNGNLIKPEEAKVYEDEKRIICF

HEK293 [6] = assay: cells; details: Homo sapiens
HEK293 [7] = assay: NOD1 signaling inhibitors, primary screen, cell-based, luminescence, uHTS (AID 1578); assay type: functional; details: Homo sapiens
Tumor necrosis factor = Tumor necrosis factor (Homo sapiens, UniProt P01375); assay: TNFa-triggered NF-kB activation inhibitors, SAR follow-up, cell-based, revised (AID 2337); assay type: functional
Chain of Tumor necrosis factor (P01375 whole entry): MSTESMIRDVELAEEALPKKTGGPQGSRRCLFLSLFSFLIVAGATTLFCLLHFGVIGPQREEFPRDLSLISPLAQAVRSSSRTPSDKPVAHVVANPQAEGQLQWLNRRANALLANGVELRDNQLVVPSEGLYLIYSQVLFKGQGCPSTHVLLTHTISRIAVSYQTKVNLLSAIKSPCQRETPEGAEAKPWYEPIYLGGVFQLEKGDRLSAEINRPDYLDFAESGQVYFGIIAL

HEK293 [8] = assay: NOD2 signaling inhibitors in MDP-stimulated cells, cell-based, uHTS, luminescence (AID 2001); assay type: functional; details: Homo sapiens
[9] = molecular target: Polyadenylate-binding protein 1 (Homo sapiens, UniProt P11940); assay: PABP inhibition in translation initiation, SAR follow-up (AID 435018); assay type: functional
Chain of Polyadenylate-binding protein 1 (P11940 whole entry): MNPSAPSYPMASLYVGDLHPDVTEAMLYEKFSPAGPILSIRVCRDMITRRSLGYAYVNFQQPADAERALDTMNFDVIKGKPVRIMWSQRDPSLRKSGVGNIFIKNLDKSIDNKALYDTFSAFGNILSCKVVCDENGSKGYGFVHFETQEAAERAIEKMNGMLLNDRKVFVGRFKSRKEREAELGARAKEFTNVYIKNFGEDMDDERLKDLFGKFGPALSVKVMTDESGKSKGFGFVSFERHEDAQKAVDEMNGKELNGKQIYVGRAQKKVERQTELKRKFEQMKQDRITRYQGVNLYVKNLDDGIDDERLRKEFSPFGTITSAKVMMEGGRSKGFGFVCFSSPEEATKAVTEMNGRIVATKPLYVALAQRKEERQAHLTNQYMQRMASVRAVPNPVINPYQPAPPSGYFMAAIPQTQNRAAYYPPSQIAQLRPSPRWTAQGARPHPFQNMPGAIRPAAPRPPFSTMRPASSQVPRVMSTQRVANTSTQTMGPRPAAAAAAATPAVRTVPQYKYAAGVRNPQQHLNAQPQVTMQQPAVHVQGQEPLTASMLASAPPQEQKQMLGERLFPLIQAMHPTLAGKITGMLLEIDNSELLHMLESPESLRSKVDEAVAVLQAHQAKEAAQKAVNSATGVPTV

[10] = molecular target: Eukaryotic translation initiation factor 4H (Homo sapiens, UniProt Q15056); assay: eIF4H inhibition in translation initiation, SAR follow-up (AID 435011); assay type: functional
Trypsin = Trypsin (Sus scrofa, UniProt P00761); assay: porcine trypsin inhibitors, dose response, selectivity assay for Rce1 protease inhibitor project, biochemical, quenched peptide fluorescence, cherry-pick (AID 488789)
Chain of Trypsin (P00761 whole entry): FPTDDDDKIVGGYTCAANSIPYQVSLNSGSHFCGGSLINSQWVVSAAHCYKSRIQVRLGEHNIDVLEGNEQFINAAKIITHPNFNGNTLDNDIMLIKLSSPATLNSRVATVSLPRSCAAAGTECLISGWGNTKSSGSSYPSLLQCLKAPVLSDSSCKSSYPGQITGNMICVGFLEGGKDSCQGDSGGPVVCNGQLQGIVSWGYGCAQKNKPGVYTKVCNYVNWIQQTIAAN

[11] = MC4R antagonists, dose response, counter-screen for LGR2 antagonist project, cell-based, plate reader, cherry pick (AID 743444); assay type: functional;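 note: transfected HEK 293 cells stimulated with alpha-MSH peptide; potency of inhibitors of the alpha-MSH evoked signal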
[12] = LGR2 antagonists, dose response, cell-based, HEK293, CRE-luciferase reporter, cherry pick, set 2 (AID 743343); assay type: functional;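 note: transfected cells were stimulated with diluted bursicon conditioned medium after compound addition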
INS1 = assay: beta cell apoptosis inhibitors, cytokine rescue, dose response, luminescence, retest (AID 449756); assay type: functional, cell-based; details: Rattus norvegicus;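 note: cell death triggered by IL-1 beta plus TNF-alpha plus IFN-gamma mixture; protective hits raise ATP signal compared with cytokine alone wells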
[13] = cytotoxicity in HEK-293T cells, dose response, cytotoxicity control for TCR NF-kB inhibitor project, luminescence, T-cell screen hits (AID 489026); assay type: functional, cell-based;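 note: cells exposed to compound about 14 hours before the viability readout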
[14] = HepG2 cell cytotoxicity, dose response, cytotoxicity control for Shn3 inhibitor project, CellTiter-Glo, cherry-picked (AID 624134); assay type: functional, cell-based
[15] = Shn3 3'UTR reporter inhibitors, dose response, cell-based, Clone20 osteoblasts, firefly luciferase, cherry-picked (AID 624132); assay type: functional;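 note: firefly luciferase luminescence from reporter carrying the Shn3 3'UTR in osteoblasts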
[16] = control 3'UTR Renilla luciferase suppression, dose response, counter-screen for Shn3 inhibitor project, cell-based, Clone20-Shn3RL, cherry-picked (AID 624133); assay type: functional
[17] = molecular target: T2, E3 ubiquitin-protein ligase XIAP (Homo sapiens, UniProt P98170); assay: Counter Screen using XIAP-Bir3 for Chemical Antagonists of Bir1/2 domains of IAP-family anti-apoptotic proteins. [Related pubchem assays (depositor defined):AID1018, AID1449, AID1514, AID1638, AID1749, AID1750, AID488957, AID488963]
T2 sequence (P98170 whole entry): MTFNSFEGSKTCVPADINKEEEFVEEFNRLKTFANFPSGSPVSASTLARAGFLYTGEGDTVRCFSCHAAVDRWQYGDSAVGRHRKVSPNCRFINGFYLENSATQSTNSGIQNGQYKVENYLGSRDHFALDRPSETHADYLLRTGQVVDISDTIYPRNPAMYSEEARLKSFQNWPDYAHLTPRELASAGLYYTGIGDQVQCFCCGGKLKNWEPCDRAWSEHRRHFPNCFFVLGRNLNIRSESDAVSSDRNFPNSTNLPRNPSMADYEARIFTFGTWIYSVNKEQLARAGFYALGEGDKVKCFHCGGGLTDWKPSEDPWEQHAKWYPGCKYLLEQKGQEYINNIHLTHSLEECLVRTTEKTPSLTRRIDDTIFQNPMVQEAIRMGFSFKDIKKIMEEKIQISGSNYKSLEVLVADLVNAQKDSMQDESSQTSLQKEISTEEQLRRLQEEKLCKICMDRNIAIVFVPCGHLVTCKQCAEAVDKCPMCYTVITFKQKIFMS

[18] = molecular target: T2, E3 ubiquitin-protein ligase XIAP; assay: XIAP antagonists, biochemical, IAP family, fluorescence polarization (AID 1018); assay type: functional
[19] = molecular target: Tyrosine-protein phosphatase non-receptor type 7 (Homo sapiens, UniProt P35236); assay: HePTP (PTPN7) phosphatase inhibitor potency, SAR follow-up, biochemical, set 2 (AID 449736); assay type: functional
Chain of Tyrosine-protein phosphatase non-receptor type 7 (P35236 whole entry): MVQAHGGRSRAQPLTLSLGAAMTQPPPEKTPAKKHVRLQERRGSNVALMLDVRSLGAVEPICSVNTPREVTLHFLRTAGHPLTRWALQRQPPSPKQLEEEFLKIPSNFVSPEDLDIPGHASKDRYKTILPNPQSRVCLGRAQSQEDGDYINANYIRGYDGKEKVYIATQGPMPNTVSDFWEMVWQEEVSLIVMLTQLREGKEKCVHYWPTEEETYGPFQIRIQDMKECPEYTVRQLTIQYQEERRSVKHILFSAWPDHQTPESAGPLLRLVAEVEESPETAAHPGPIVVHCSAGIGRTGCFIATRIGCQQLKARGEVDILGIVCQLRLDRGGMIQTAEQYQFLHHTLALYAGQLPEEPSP

SUMO E1/E2 = SUMO E1/E2 (Homo sapiens, UniProt P63279+Q9UBE0+Q9UBT2); assay: SAR analysis of SUMOylation using HTRF in an in-Vitro dose response assay. [Related pubchem assays (depositor defined):AID2006, AID2011, AID2018, AID2069, AID2658]; assay type: functional
Chain of SUMO E1/E2 (Q9UBE0 whole entry): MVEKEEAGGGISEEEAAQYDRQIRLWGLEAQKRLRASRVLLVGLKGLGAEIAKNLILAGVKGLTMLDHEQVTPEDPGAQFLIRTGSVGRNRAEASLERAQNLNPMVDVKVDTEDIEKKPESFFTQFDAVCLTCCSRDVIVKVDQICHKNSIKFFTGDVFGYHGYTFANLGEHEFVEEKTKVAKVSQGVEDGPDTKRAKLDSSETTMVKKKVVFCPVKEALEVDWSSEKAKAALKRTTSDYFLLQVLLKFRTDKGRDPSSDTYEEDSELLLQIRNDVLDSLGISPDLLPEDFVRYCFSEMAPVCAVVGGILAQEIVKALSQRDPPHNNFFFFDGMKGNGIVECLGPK
Chain of SUMO E1/E2 (Q9UBT2 whole entry): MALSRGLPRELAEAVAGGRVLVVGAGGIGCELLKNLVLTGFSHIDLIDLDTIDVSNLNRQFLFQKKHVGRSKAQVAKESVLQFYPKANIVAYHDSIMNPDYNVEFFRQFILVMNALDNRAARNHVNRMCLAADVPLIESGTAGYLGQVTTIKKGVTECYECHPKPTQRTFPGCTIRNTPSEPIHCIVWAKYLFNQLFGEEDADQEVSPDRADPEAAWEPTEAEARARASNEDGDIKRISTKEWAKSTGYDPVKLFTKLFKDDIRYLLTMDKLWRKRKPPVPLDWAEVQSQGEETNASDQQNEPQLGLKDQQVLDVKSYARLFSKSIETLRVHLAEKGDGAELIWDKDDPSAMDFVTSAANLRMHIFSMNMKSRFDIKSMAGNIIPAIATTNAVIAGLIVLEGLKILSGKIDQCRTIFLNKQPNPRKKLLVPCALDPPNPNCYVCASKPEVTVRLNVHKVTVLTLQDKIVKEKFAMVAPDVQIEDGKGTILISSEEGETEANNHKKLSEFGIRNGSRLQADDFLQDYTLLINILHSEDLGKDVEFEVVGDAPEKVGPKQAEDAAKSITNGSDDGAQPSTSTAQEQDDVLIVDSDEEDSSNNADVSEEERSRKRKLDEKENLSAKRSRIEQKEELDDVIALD
Chain of SUMO E1/E2 (P63279 whole entry): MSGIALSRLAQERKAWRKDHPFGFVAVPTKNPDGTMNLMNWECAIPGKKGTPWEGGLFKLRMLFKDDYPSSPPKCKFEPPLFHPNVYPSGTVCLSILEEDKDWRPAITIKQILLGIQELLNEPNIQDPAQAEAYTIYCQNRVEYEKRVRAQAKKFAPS

Compound: CC1CCc2c(sc(NC(=O)/C=C/c3cccs3)c2C(=O)O)C1 (stereo unspecified)
- IC50 (HEK293 [1]): > 20 µM (inactive)
- IC50 (HEK293 [2]): > 20 µM (inactive)
- IC50 (HEK293 [3]): > 20 µM (inactive)
- EC50 [4]: > 20 µM (inactive)
- IC50 [5]: 1.55 µM (active)
- IC50 (HEK293 [6]): > 20 µM (inactive)
- EC50 (HEK293 [7]): 6.14 µM (active)
- IC50 (Tumor necrosis factor): 9.63 µM (active)
- IC50 (HEK293 [8]): 16.7 µM (inactive)

Compound: O=C(Nc1ccc(F)cc1)C1CCCN1C(=O)Oc1ccccc1 (stereo unspecified)
- IC50 [9]: > 100 µM (inactive)
- IC50 [10]: > 100 µM (inactive)

Compound: c1ccc(-n2cnnc2SCc2cn3cccnc3n2)cc1
- AC50 (Trypsin): 9.66 µM (active)
- AC50 [11]: 19.4 µM (active)
- AC50 [12]: 30.1 µM (active)

Compound: CCC(=O)N1c2ccc(S(=O)(=O)N3CCN(c4ccc([N+](=O)[O-])cc4)CC3)cc2CC1C (stereo unspecified)
- AC50 (INS1): 4.98 µM (active)
- IC50 (HEK293 [1]): > 20 µM (inactive)
- IC50 (HEK293 [2]): 3.16 µM (active)
- IC50 [13]: > 80 µM (inactive)
- AC50 [14]: 1.52 µM (active)
- IC50 [5]: 2.24 µM (active) and 1.87 µM (active)
- IC50 (HEK293 [6]): > 20 µM (inactive)
- EC50 (HEK293 [7]): 1.67 µM (active)
- AC50 [15]: 1.93 µM (active)
- IC50 (Tumor necrosis factor): 4.09 µM (active) and 4.88 µM (active)
- AC50 [16]: 9.71 µM (active)
- IC50 (HEK293 [8]): 4.46 µM (active)

- IC50 [17]: > 100 µM (inactive)
- IC50 [18]: > 100 µM (not active)
Compound: Cn1ncc(Cl)c1C(=O)N1CCN(C(=O)c2ccco2)CC1

Compound: COc1cccc(-c2cc(=O)c3cc(NC(=O)c4ccccc4)ccc3[nH]2)c1
- IC50 [13]: > 80 µM (inactive)

Compound: NS(=O)(=O)c1ccc(NC(=O)N2CCN(Cc3cccnc3)CC2)cc1
- IC50 [19]: > 100 µM (inactive)

- IC50 (SUMO E1/E2): > 100 µM (inactive)
Compound: O=C(O)c1ccc2c(c1)C1C=CCC1C(c1ccc(F)cc1)N2 (stereo unspecified)
